According to patent US20180111913A1, “SUBSTITUTED BENZOFURAN DERIVATIVES AS NOVEL ANTIMYCOBACTERIAL AGENTS” (priority 2015, published 2018):
Values after ≈ are worked out from the molar mass of the structure shown. Like-named read-outs stand apart in the source and are kept apart here.

Assays:
Mtb strain mc^27000 = test: microbe, parasite or virus in culture; assay type: cell-based, Mycobacterium tuberculosis
[1] = tested on: human dermal fibroblast (HDF) cells; details: for Survival vs. Control: HDF cell survival relative to DMSO-only control at the first (or only) Non-Toxic Concentration value; for Non-Toxic Concentration: human, 48 h
[2] = target: Mtb Pks13-TE domain (wild-type) (Mycobacterium tuberculosis, UniProt I6X8D2); test: biochemical; assay type: biochemical
Mtb Pks13-TE domain (wild-type), sequence (I6X8D2 1451-1733): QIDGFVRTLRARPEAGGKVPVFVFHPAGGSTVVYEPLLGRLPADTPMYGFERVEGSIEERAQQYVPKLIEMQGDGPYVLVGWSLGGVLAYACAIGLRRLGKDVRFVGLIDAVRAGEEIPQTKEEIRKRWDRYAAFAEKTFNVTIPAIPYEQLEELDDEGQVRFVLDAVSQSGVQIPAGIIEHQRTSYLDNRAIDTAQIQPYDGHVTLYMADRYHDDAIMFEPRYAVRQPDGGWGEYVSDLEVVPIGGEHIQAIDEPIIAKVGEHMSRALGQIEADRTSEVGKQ

[3] = Mycobacterium tuberculosis, Mtb mc^27000, liquid medium, 96-well plates, read-out: MIC
[4] = Pks13-TE, 20 μM 4-MUH, read-out: IC50
[5] = Pks13 enzyme inhibition, read-out: Pks13 IC50
[6] = Mycobacterium tuberculosis, read-out: Pks13 MIC
[7] = Mtb mc^27000, liquid medium, 96-well plates, read-out: MIC
[8] = Mtb Pks13-TE domain, mean ± s.d. of triplicates, read-out: IC50

In the case of `CNC(=O)c1c(-c2cc(F)c(O)c(F)c2)oc2ccc(O)c(CN3CCCCC3)c12` [compound 64], the MIC (Mtb strain mc^27000; [3]) is reported as > 40 µM, the “Pks13 MIC” value (Mtb strain mc^27000; whole cell, mc^27000 Mtb, NI at 40 μM) is reported as “NI (40 μM)” and the “Survival vs. Control” value [1] is reported as 94%. For the same compound, the “Non-Toxic Concentration” value [1] was 100 µM, the IC50 [2, 4] was 1500 nM and the IC50 [2, 5] was 1500 to 1900 nM.

`CCOC(=O)c1c(-c2ccccc2)oc2ccc(O)c(CCN3CCCC3)c12` [compound 102] was tested, and the MIC (Mtb strain mc^27000; [3]) was 0.7 µM (≈ 0.266 µg/mL), the “Survival vs. Control” value [1] was 91% and the “Non-Toxic Concentration” value [1] was 1.56 µM. The IC50 [2, 4] was 2500 nM and the IC50 [2, 5] was 700 nM.

For `CCOC(=O)c1c(-c2ccc(OC)cc2)oc2ccc(O)c(CN3CCCCC3)c12` [compound 21], the MIC (Mtb strain mc^27000; [3]) was 2.6 µM (≈ 1.06 µg/mL), the MIC (Mtb strain mc^27000; [6]) was 2.6 µM (≈ 1.06 µg/mL) and the “Survival vs. Control” value [1] was 104%. The “Non-Toxic Concentration” value [1] was 50 µM, the IC50 [2, 4] was 290 nM and the IC50 [2, 5] was 290 nM.

`CCOC(=O)c1c(-c2ccccc2)oc2cc(OC)cc(CNC(C)C)c12` [compound 72] was tested, and the MIC (Mtb strain mc^27000; [3]) was 7.4 µM (≈ 2.72 µg/mL), the MIC (Mtb strain mc^27000; [6]) was 7.4 µM (≈ 2.72 µg/mL) and the “Survival vs. Control” value [1] was 91%. For the same compound, the “Non-Toxic Concentration” value [1] was 3.125 µM, the IC50 [2, 4] was > 10000 nM and the IC50 [2, 5] was > 10000 nM.

For `CCOC(=O)c1c(-c2cc(F)c(O)c(F)c2)oc2ccc(O)c(CN3CCCCC3)c12` [compound 63], the MIC (Mtb strain mc^27000; [3]) was 7 µM (≈ 3.02 µg/mL), the MIC (Mtb strain mc^27000; [6]) was 7 µM (≈ 3.02 µg/mL) and the “Survival vs. Control” value [1] was 99%. For the same compound, the “Non-Toxic Concentration” value [1] was 25 µM, the IC50 [2, 4] was 500 nM and the IC50 [2, 5] was 500 nM.

`CCOC(=O)c1c(-c2cccc(O)c2)oc2ccc(O)c(CN3CCCCC3)c12` [compound 50] gave an MIC (Mtb strain mc^27000; [7]) of 0.23 µM (≈ 0.091 µg/mL) and an IC50 [2, 4] of 230 nM.

Work on `CCOC(=O)c1c(-c2ccccc2)oc2cc(OC)cc(CN3CCCCC3)c12` [compound 37] yielded an MIC (Mtb strain mc^27000; [7]) of 7.3 µM (≈ 2.87 µg/mL) and an IC50 [2, 4] of 29000 nM.

In the case of `CCOC(=O)c1c(-c2ccccc2)oc2ccc(O)c(CCCN3CC[C@H]3CO)c12` [compound 213], the MIC (Mtb strain mc^27000; [7]) is reported as 0.97 µM (≈ 0.397 µg/mL) and the IC50 [2, 4] is reported as 2300 nM.

In the case of `CCOC(=O)c1c(-c2ccc(O)cc2)oc2ccc(O)c(CCCN3CCC3)c12` [compound 201], the MIC (Mtb strain mc^27000; [3]) is reported as < 0.08 µM and the IC50 [2, 4] is reported as 2100 nM.

Work on `CNC(=O)c1c(-c2ccc(O)cc2)oc2ccc(O)c(CN3CCC(CO)CC3)c12` [compound 121] yielded an MIC (Mtb strain mc^27000; [3]) of 40 µM (≈ 16.4 µg/mL) and an IC50 [2, 4] of 600 nM.

For `Oc1ccc2nc(-c3ccccc3)[nH]c2c1CN1CCCC1` [compound 110], the MIC (Mtb strain mc^27000; [3]) was 22 µM (≈ 6.45 µg/mL) and the IC50 [2, 4] was 6800 nM.

For `O=C(c1c(-c2ccccc2)oc2ccc(O)c(CN3CCCCC3)c12)N1CCOCC1` [compound 46], the MIC (Mtb strain mc^27000; [3]) was > 20 µM and the IC50 [2, 4] was 340 nM.

`COC(=O)n1c(-c2ccccc2)c(Br)c2cccc(CN3CCCCC3)c21` [compound 108] was tested, and the inhibition at 20 µM (Mtb strain mc^27000; Mycobacterium tuberculosis, at 20 μM, read-out: percentage inhibition observed (incomplete inhibition)) was 26% and the IC50 [2, 4] was 2000 nM.

With `NC(=O)c1c(-c2ccc(O)cc2)oc2ccc(O)c(CN3CCCCC3)c12` [compound 125] the MIC (Mtb strain mc^27000; [3]) was 1.3 µM (≈ 0.476 µg/mL) and the IC50 [2, 4] was 170 nM.

Work on `CCOC(=O)c1c(-c2ccccc2)oc2ccc(O)c(CCCN3CC[C@H](O)C3)c12` [compound 186] yielded an MIC (Mtb strain mc^27000; [3]) of 10 µM (≈ 4.09 µg/mL) and an IC50 [2, 4] of 620 nM.

Work on `CCOC(=O)c1c(-c2ccccc2)oc2ccc(O)c(CCCN3CC[C@@H]3CO)c12` [compound 212] yielded an MIC (Mtb strain mc^27000; [3]) of 1.1 µM (≈ 0.45 µg/mL) and an IC50 [2, 4] of 1940 nM.

`CCOC(=O)c1c(-c2ccccc2)oc2ccc(O)c(Cc3ccccc3)c12` [compound 10] was tested, and the MIC (Mtb strain mc^27000; [3]) was 40 µM (≈ 14.9 µg/mL) and the IC50 [2, 4] was 11900 nM.

Compound `CCOC(=O)c1c(-c2ccccc2)oc2ccc(O)c(CN3CCCC(CO)C3)c12` (stereo not shown) [compound 132] has an MIC (Mtb strain mc^27000; [7]) of 10 µM (≈ 4.09 µg/mL) and an IC50 [2, 4] of 420 nM.

For `CCOC(=O)c1c(-c2ccccc2)oc2ccc(O)c(CN(C)C)c12` [compound 109], the “higher MIC compared to the test compound” value (Mtb strain mc^27000) was 3 fold, the “MIC” value (Mtb strain mc^27000; Mtb mc^27000, liquid medium, 96-well plates) was 7.3 ± 0.3 µM (≈ 2.48 µg/mL) and the MIC (Mtb strain mc^27000; […], mean ± s.d. of triplicates, NI: no inhibition) was 7.3 ± 0.3 µM (≈ 2.48 µg/mL). The IC50 [2, 8] was 1570 ± 150 nM, the IC50 [2, 4] was 1570 ± 150 nM and the “loss of inhibitory activity / higher IC50 against Pks13-TE compared to the test compound” value ([2]; relative to test compound) was > 6 fold.

With `CCOC(=O)c1c(-c2ccccc2)oc2cc(O)cc(CCN)c12` [compound 136] the MIC (Mtb strain mc^27000; [7]) was 4 µM (≈ 1.3 µg/mL) and the IC50 [2, 4] was > 20000 nM.

`CCOC(=O)c1c(-c2ccccc2)oc2cc(NC(C)=O)c(O)c(CN3CCCCC3)c12` [compound 28] gave an MIC (Mtb strain mc^27000; [7]) of 20 µM (≈ 8.73 µg/mL) and an IC50 [2, 4] of 3100 nM.

In the case of `CCOC(=O)c1c(-c2ccccc2)oc2cccc(CN3CCCCC3)c12` [compound 24], the MIC (Mtb strain mc^27000; [7]) is reported as 16 µM (≈ 5.82 µg/mL), the MIC (Mtb strain mc^27000; […], mean ± s.d. of triplicates, NI: no inhibition, read-out: MIC) is reported as 16 µM (≈ 5.82 µg/mL) and the IC50 [2, 8] is reported as 2000 ± 100 nM. For the same compound, the IC50 [2, 4] was 2000 nM and the “loss / decrease in inhibitory activity compared to compound I” value ([2]; relative to compound I) was ~7 fold.

For `CCOC(=O)c1c(-c2ccccc2)oc2ccc(O)c(CCN3CCCC(O)C3)c12` (stereo not shown) [compound 151], the MIC (Mtb strain mc^27000; [7]) was >20 µM and the IC50 [2, 4] was 10000 nM.

For `CCOC(=O)c1c(-c2cccc(OC)c2)oc2ccc(O)c(CN3CCCCC3)c12` [compound 48], the MIC (Mtb strain mc^27000; [3]) was 1.3 µM (≈ 0.532 µg/mL) and the IC50 [2, 4] was 360 nM.

In the case of `CCOC(=O)c1c(-c2ccccc2)oc2ccc(O)c(CCCN3CC[C@@H](O)C3)c12` [compound 175], the MIC (Mtb strain mc^27000; [3]) is reported as 6.1 µM (≈ 2.5 µg/mL) and the IC50 [2, 4] is reported as 950 nM.

With `CCOC(=O)c1c(-c2ccccc2)oc2cc([N+](=O)[O-])c(O)c(CN3CCCCC3)c12` [compound 26] the MIC (Mtb strain mc^27000; [3]) was 5.4 µM (≈ 2.29 µg/mL) and the IC50 [2, 4] was 1300 nM.

`CCOC(=O)c1c(-c2ccccc2)oc2ccc(O)c(CCCN3CCC3)c12` [compound 165] was tested, and the MIC (Mtb strain mc^27000; [3]) was 0.08 µM (≈ 0.0304 µg/mL) and the IC50 [2, 4] was 800 nM.

`CNC(=O)c1c(-c2ccccc2)oc2ccc(O)c(CCN3CC[C@H](Br)C3)c12` [compound 231] was tested, and the MIC (Mtb strain mc^27000; [3]) was 8 µM (≈ 3.55 µg/mL) and the IC50 [2, 4] was 5000 nM.
